Experiments:
[1] = biological target: choline transporter (CHT1) (h) (Homo sapiens, UniProt Q9GZV3); assay: competitive radioligand binding assay, choline transporter (CHT1) (h) (antagonist radioligand)
[2] = biological target: NK1 (h) (Homo sapiens, UniProt P25103); assay: competitive radioligand binding assay, NK1 (h) (agonist radioligand)
[3] = test system: LnCAP-Z2 tumors; assay: Prostate cancer xenograft model, SCID male mice bearing LnCAP-Z2 tumors; assay type: in vivo; conditions: for antitumor efficacy (in words): oral
Method: SCID male mice bearing LnCAP-Z2 tumors (mean volume˜160-190 mm^3) were treated daily by oral gavage with vehicle or drugs for 21 days. Individual tumor volume change by the end of the study. Percentage of change in individual tumor volumes as compared to the start of treatment.
FIG. 6. […] SCID male mice bearing LnCAP-Z2 tumors (mean volume˜160-190 mm^3) treated daily by oral gavage with vehicle or drugs for 21 days. Individual tumor volume change by the end of the study. Percentage of change in individual tumor volumes compared to the start of treatment.
FIG. 7. […] SCID male mice bearing LnCAP-Z2 tumors (mean volume˜160-190 mm^3) treated daily by oral gavage with vehicle or drugs for 21 days. (A)—Tumor weight by the end of the study. Mean±SEM are presented. […] (B)—PSA expression by the end of the study. Plasma samples were collected 24 hours after the last drug administration. Mean±SEM are presented.
The antitumor efficacy of (R)-1 was tested in a xenograft model of prostate cancer (FIGS. 6 and 7). Male immunodeficient mice harboring LnCAP-Z2 tumors were treated orally for 21 days with either vehicle or (R)-1 at 20 and 50 mg/kg once daily and at 20 mg/kg twice daily. […] Twenty-four hours after last treatment, blood samples were collected from all animals and used for measuring PSA expression and drug concentration. In addition, the concentration of drugs and Ki67 expression were measured in tumor samples.

[4] = biological target: V1 a (h) (Homo sapiens, UniProt P37288); assay: competitive radioligand binding assay, V1 a (h) (agonist radioligand)
V1 a (h), sequence (P37288 whole entry): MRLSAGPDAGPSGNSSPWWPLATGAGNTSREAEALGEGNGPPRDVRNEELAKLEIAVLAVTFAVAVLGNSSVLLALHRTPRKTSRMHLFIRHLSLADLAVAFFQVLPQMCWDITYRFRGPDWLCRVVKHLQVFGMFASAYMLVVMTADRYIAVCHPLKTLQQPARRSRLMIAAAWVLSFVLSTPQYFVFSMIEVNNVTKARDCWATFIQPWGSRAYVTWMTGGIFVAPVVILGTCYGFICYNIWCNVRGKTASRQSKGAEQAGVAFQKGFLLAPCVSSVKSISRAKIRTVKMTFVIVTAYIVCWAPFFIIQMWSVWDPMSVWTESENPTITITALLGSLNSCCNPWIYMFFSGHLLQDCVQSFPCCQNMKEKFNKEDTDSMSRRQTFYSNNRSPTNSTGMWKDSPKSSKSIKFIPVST

[5] = test system: sigma (non-selective) (h); assay: competitive radioligand binding assay, sigma (non-selective) (h) (agonist radioligand); parameters: species or system human; conditions: 10 μM
[6] = biological target: 5-HT transporter (h) (Homo sapiens, UniProt P31645); assay: competitive radioligand binding assay, 5-HT transporter (h) (antagonist radioligand)
[7] = test system: Cl− channel (GABA-gated); assay: competitive radioligand binding assay, Cl− channel (GABA-gated) (antagonist radioligand); conditions: 10 μM
[8] = test system: opioid (non-selective); assay: competitive radioligand binding assay, opioid (non-selective) (antagonist radioligand); conditions: 10 μM
[9] = test system: Ca2+ channel (L, diltiazem site) (benzothiazepines); assay: competitive radioligand binding assay, Ca2+ channel (L, diltiazem site) (benzothiazepines) (antagonist radioligand); conditions: 10 μM
[10] = biological target: NK3 (h) (Homo sapiens, UniProt P29371); assay: competitive radioligand binding assay, NK3 (h) (antagonist radioligand)
NK3 (h), sequence (P29371 whole entry): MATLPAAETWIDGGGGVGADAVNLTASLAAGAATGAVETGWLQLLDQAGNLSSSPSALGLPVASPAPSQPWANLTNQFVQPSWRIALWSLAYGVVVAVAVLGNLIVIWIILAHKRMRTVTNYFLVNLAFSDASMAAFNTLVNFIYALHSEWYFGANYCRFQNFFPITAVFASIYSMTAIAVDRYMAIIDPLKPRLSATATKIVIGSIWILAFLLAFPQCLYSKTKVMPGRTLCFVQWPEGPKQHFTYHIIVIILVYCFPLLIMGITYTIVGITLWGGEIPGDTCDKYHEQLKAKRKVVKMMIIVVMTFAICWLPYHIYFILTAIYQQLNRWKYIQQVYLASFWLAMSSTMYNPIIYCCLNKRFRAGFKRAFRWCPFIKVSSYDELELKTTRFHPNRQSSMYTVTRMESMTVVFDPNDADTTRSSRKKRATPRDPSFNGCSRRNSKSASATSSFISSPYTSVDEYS

[11] = biological target: B1 (h) (Homo sapiens, UniProt P46663); assay: competitive radioligand binding assay, B1 (h) (agonist radioligand)
B1 (h), sequence (P46663 whole entry): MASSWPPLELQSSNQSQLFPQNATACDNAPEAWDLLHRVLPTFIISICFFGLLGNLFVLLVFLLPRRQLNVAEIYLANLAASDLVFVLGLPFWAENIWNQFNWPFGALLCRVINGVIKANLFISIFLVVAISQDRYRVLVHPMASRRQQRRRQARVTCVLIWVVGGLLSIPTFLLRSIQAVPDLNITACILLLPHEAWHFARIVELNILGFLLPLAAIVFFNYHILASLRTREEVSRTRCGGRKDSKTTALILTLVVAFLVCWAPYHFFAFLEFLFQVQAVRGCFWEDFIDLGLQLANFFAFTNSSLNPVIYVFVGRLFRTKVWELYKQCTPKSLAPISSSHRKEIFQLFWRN

[12] = biological target: TRH1 (h) (Homo sapiens, UniProt P34981); assay: competitive radioligand binding assay, TRH1 (h) (agonist radioligand)
[13] = biological target: V2 (h) (Homo sapiens, UniProt P30518); assay: competitive radioligand binding assay, V2 (h) (agonist radioligand)
V2 (h), sequence (P30518 whole entry): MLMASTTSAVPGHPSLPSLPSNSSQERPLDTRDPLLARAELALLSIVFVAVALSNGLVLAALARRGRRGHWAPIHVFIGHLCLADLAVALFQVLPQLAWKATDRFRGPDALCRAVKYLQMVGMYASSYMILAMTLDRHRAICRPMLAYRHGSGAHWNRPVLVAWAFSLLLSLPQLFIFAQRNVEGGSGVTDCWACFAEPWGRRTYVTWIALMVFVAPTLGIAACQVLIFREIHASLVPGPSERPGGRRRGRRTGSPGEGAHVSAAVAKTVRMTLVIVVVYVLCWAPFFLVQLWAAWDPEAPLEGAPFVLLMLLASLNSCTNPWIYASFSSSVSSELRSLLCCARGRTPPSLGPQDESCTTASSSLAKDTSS

[14] = test system: CYP 3A; assay: CYP 3A induction assay; assay type: in vitro ADME
[15] = biological target: T1, rat AR ligand-binding domain (Rattus norvegicus, UniProt P15207); assay: Competitive-binding assay vs AR ligand Fluormone (PolarScreen Androgen Receptor Competitor Assay, fluorescence polarization)
T1 construct: purchased Invitrogen PV4293
T1 sequence (P15207 651-882 limits assumed): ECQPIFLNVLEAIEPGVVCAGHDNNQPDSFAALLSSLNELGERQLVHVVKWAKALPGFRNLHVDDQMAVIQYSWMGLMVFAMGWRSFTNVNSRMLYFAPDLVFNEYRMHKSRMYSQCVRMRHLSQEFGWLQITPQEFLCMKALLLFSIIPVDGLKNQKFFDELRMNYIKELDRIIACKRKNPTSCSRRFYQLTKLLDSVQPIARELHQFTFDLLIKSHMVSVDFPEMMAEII
Method: Binding to rat AR ligand-binding domain was measured in competition with fluorescently labeled AR ligand Fluormone™ using a commercial assay kit and fluorescence polarization as a read-out.
FIG. 3. Competitive-binding assay vs AR ligand Fluormone™ (PolarScreen™ Androgen Receptor Competitor Assay, Invitrogen, cat. #PV4293).

[16] = biological target: CCK2 (CCKB) (h) (Homo sapiens, UniProt P32239); assay: competitive radioligand binding assay, CCK2 (CCKB) (h) (agonist radioligand)
CCK2 (CCKB) (h), sequence (P32239 whole entry): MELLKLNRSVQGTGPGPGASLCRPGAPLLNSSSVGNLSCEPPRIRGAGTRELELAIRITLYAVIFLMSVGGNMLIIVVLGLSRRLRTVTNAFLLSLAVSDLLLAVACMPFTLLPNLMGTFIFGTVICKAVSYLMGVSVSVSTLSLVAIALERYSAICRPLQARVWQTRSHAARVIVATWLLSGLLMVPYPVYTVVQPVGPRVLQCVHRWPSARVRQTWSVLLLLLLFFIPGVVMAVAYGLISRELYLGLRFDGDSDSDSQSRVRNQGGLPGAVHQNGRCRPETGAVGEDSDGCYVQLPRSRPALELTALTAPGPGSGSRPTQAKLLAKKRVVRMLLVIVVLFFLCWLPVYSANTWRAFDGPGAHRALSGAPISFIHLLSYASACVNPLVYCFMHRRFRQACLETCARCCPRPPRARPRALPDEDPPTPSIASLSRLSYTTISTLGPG

[17] = biological target: D1 (h) (Homo sapiens, UniProt P21728); assay: competitive radioligand binding assay, D1 (h) (antagonist radioligand)
D1 (h), sequence (P21728 whole entry): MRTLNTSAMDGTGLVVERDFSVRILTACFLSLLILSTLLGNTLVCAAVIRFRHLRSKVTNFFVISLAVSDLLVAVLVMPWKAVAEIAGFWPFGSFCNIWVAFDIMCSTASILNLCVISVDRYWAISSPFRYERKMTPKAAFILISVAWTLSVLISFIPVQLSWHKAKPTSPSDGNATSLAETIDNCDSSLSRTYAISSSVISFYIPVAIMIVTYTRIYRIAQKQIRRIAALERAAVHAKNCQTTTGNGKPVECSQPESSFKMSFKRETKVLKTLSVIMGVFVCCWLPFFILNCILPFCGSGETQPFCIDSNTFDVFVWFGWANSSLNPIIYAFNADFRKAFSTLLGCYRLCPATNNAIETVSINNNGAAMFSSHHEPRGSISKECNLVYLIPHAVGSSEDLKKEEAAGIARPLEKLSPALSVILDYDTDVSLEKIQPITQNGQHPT

[18] = biological target: CB2 (h) (Homo sapiens, UniProt P34972); assay: competitive radioligand binding assay, CB2 (h) (agonist radioligand)
CB2 (h), sequence (P34972 whole entry): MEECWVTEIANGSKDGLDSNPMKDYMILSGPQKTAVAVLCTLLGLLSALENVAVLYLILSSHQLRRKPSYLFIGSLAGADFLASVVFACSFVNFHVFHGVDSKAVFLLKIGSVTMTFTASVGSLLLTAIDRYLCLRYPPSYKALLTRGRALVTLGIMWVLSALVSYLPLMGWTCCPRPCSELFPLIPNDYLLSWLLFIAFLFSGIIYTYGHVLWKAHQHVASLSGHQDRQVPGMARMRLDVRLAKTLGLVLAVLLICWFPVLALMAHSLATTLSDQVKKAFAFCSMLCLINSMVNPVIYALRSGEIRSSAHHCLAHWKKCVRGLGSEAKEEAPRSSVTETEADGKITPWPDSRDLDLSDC

[19] = test system: AR (h); assay: competitive radioligand binding assay, AR (h) (agonist radioligand); parameters: species or system human; conditions: 10 μM
[20] = biological target: H3 (h) (Homo sapiens, UniProt Q9Y5N1); assay: competitive radioligand binding assay, H3 (h) (agonist radioligand)
[21] = biological target: D2S (h) (Homo sapiens, UniProt P14416); assay: competitive radioligand binding assay, D2S (h) (antagonist radioligand)
D2S (h), sequence (P14416 1-414 isoform P14416-2): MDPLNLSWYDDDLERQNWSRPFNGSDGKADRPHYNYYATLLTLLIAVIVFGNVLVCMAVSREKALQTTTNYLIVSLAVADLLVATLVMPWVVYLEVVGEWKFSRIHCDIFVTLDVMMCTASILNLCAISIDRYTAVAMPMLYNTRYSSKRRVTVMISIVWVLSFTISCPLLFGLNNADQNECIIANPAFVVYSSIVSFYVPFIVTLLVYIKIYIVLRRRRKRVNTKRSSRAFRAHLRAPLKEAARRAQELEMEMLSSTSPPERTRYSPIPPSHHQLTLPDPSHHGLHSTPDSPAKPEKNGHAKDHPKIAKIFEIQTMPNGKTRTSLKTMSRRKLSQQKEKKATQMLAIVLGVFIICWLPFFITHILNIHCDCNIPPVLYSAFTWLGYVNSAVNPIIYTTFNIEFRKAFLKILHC

[22] = test system: Na+ channel (site 2); assay: competitive radioligand binding assay, Na+ channel (site 2) (antagonist radioligand); conditions: 10 μM
[23] = test system: P2Y; assay: competitive radioligand binding assay, P2Y (agonist radioligand); conditions: 10 μM
[24] = test system: SKCa channel; assay: competitive radioligand binding assay, SKCa channel (antagonist radioligand); conditions: 10 μM
[25] = biological target: ETB (h) (Homo sapiens, UniProt P24530); assay: competitive radioligand binding assay, ETB (h) (agonist radioligand)
ETB (h), sequence (P24530 27-442): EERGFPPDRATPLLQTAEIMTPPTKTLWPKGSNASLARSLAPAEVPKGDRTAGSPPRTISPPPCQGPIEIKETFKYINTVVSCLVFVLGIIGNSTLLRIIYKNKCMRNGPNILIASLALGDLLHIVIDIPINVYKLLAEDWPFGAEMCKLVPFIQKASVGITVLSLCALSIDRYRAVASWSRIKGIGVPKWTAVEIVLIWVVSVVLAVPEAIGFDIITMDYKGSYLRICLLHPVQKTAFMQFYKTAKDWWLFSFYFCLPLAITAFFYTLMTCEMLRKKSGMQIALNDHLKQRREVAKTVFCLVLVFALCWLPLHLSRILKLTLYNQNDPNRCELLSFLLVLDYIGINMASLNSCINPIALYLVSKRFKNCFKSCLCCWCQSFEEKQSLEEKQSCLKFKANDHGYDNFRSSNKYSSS

[26] = biological target: H1 (h) (Homo sapiens, UniProt P35367); assay: competitive radioligand binding assay, H1 (h) (antagonist radioligand)
[27] = test system: P2X; assay: competitive radioligand binding assay, P2X (agonist radioligand); conditions: 10 μM
[28] = biological target: CysLT1 (LTD4) (h) (Homo sapiens, UniProt Q9Y271); assay: competitive radioligand binding assay, CysLT1 (LTD4) (h) (agonist radioligand)
CysLT1 (LTD4) (h), sequence (Q9Y271 whole entry): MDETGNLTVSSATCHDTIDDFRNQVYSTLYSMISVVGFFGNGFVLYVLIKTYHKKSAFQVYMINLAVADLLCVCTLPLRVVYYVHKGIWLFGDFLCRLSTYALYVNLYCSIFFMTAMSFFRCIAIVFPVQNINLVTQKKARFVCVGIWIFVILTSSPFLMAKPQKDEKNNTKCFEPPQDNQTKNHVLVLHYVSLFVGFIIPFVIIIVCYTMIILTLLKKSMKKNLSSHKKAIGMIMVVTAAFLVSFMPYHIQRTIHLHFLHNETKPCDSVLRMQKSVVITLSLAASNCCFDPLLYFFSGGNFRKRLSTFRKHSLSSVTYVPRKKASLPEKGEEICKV

choline transporter (CHT1) (h), sequence (Q9GZV3 whole entry): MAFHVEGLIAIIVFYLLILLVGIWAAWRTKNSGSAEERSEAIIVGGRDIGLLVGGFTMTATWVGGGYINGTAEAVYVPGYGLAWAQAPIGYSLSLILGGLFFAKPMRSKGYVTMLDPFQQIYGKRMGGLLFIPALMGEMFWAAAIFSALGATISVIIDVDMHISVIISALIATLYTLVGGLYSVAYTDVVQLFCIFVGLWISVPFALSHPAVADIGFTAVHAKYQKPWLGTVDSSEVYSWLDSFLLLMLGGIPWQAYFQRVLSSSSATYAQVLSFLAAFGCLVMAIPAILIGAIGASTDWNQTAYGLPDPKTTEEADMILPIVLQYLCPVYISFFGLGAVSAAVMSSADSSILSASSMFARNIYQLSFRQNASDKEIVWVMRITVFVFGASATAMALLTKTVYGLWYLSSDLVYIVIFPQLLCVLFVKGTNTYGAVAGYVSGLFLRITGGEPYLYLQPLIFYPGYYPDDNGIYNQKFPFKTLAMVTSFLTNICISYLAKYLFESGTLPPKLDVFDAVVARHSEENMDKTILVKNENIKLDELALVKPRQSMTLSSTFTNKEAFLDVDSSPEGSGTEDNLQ

For CNC(=O)c1ccc(N2C(=S)N(c3ccc(C#N)c(C(F)(F)F)c3)C(=O)[C@]23CCOC3)cc1F [(R)-1, 4-[(R)-3-(4-cyano-3-trifluoromethyl-phenyl)-4-oxo-2-thioxo-7-oxa-1,3-diaza-spiro[4.4]non-1-yl]-2-fluoro-N-methyl-benzamide], which inhibition at 10 µM [1] is on record?
The inhibition at 10 µM was 9.7%.

And the inhibition at 10 µM [2]?
Its inhibition at 10 µM is 14.7%.

And the tumors regressed ([3]; 20 mg/kg twice daily, oral gavage, 21 days)?
Its tumors regressed is 4 of 8.

And the “effect on individual tumors (in words)” value ([3]; analysis of individual tumors, 21 days oral)?
Its value is “stimulate tumor regression”.

And the “antitumor efficacy (in words)” value ([3]; once daily at 20 or 50 mg/kg, 21 days)?
The value was “comparable with Ia administered once daily at 10 mg/kg”.

What about the “antitumor efficacy (in words)” value ([3]; twice daily at 20 mg/kg, 21 days) of the same compound?
Its value is “highest antitumor efficacy”.

What about the inhibition at 10 µM [4] of the same compound?
The inhibition at 10 µM was 12.3%.

And the “% Inhibition” value [5]?
The value was 9.8%.

What about the inhibition at 10 µM [6] of the same compound?
The inhibition at 10 µM was 43.5%.

What about the “% Inhibition” value [7] of the same compound?
The value was 42.4%.

What about the “% Inhibition” value [8] of the same compound?
Its value is 19.3%.

What about the “% Inhibition” value [9] of the same compound?
The value was −23.6%.

And the inhibition at 10 µM [10]?
The inhibition at 10 µM was -4.5%.

And the inhibition at 10 µM [11]?
Its inhibition at 10 µM is 0.5%.

And the inhibition at 10 µM [12]?
The inhibition at 10 µM was 3.4%.

And the inhibition at 10 µM [13]?
Its inhibition at 10 µM is 1.5%.

And the “Positive control, % (CYP 3A induction)” value ([14]; Concentration 1 μM)?
The value was 0.0 ± 2.0%.

And the “Positive control, % (CYP 3A induction)” value ([14]; Concentration 10 μM)?
The value was 42.0 ± 6.1%.

And the IC50 ([15]; rat AR ligand-binding domain, fluorescence polarization (FIG. 3))?
The IC50 was 7.9 µM.

What about the “fold more efficient binding than Ia” value ([15]; versus Ia) of the same compound?
Its value is “around 2.1 fold”.

And the inhibition at 10 µM [16]?
The inhibition at 10 µM was -2.5%.

What about the inhibition at 10 µM [17] of the same compound?
Its inhibition at 10 µM is -2.4%.

What about the inhibition at 10 µM [18] of the same compound?
Its inhibition at 10 µM is 9.1%.

What about the “% Inhibition” value [19] of the same compound?
The value was 96.3%.

What about the inhibition at 10 µM [20] of the same compound?
The inhibition at 10 µM was -13%.

And the inhibition at 10 µM [21]?
The inhibition at 10 µM was -8.1%.

What about the “% Inhibition” value [22] of the same compound?
The value was −11.6%.

And the “% Inhibition” value [23]?
Its value is 33.3%.

What about the “% Inhibition” value [24] of the same compound?
Its value is −4.8%.

What about the inhibition at 10 µM [25] of the same compound?
The inhibition at 10 µM was -1.7%.

What about the inhibition at 10 µM [26] of the same compound?
The inhibition at 10 µM was 0.7%.

What about the “% Inhibition” value [27] of the same compound?
The value was 28.0%.

What about the inhibition at 10 µM [28] of the same compound?
Its inhibition at 10 µM is -13.9%.

Source: patent US9073874B2, “Cyclic N,N′-diarylthioureas and N,N′-diarylureas-androgen receptor antagonists, anticancer agent, method for preparation and use thereof” (priority 2010, dated 2015)
